Source: ChEMBL document CHEMBL2401627, “Synthesis of some novel chalcones, flavanones and flavones and evaluation of their anti-inflammatory activity” (Eur J Med Chem, 2013)

Columns and labels:
Rattus norvegicus [1] = test: Antiinflammatory activity in Wistar rat assessed as inhibition of carrageenan-induced hind paw oedema at 20 mg/kg, po administered 30 mins before carrageenan challenge measured after 3 hrs by plethysmometer relative to control; type: functional
Rattus norvegicus [2] = test: Antiinflammatory activity in Wistar rat assessed as inhibition of carrageenan-induced hind paw oedema at 20 mg/kg, po administered 30 mins before carrageenan challenge measured after 5 hrs by plethysmometer relative to control; type: functional
Rattus norvegicus [3] = test: Gastrointestinal toxicity in Wistar rat assessed as ulcerogenic index at 60 mg/kg, po after 6 hrs relative to control; type: organism-based; design: dose 60 mg/kg, route oral; details: in vivo
RAW264.7 [4] = test: Antiinflammatory activity in mouse RAW264.7 cells assessed as inhibition of LPS-induced TNFalpha production at 5 uM treated 30 mins before LPS challenge measured after 1 hr by ELISA relative to control; type: functional
RAW264.7 [5] = test: Antiinflammatory activity in mouse RAW264.7 cells assessed as inhibition of LPS-induced TNFalpha production at 10 uM treated 30 mins before LPS challenge measured after 2 hrs by ELISA relative to control; type: functional
RAW264.7 [6] = test: Antiinflammatory activity in mouse RAW264.7 cells assessed as inhibition of LPS-induced TNFalpha production at 10 uM treated 30 mins before LPS challenge measured after 3 hrs by ELISA relative to control; type: functional
[7] = target: T1, Prostaglandin G/H synthase 1 (Ovis aries, UniProt P05979); test: Inhibition of ovine COX1
T1 sequence (P05979 whole entry): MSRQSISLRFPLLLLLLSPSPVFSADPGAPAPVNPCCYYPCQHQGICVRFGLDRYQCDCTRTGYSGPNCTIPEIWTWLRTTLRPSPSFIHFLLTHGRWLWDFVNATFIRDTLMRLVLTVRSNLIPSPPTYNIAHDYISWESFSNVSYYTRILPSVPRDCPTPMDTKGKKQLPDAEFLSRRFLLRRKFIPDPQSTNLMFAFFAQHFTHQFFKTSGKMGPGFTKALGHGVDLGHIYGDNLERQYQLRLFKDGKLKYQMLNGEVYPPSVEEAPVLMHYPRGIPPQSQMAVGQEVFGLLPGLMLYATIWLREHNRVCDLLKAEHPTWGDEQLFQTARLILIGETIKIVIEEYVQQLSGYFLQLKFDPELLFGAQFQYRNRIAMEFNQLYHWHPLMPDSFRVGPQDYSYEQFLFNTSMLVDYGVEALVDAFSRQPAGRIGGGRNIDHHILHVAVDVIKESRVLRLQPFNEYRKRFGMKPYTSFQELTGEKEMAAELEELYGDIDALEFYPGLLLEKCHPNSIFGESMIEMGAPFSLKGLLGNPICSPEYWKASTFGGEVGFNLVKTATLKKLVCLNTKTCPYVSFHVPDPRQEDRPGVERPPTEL

RAW264.7 [8] = test: Antiinflammatory activity in mouse RAW264.7 cells assessed as inhibition of LPS-induced TNFalpha production at 10 uM treated 30 mins before LPS challenge measured after 1 hr by ELISA relative to control; type: functional
RAW264.7 [9] = test: Antiinflammatory activity in mouse RAW264.7 cells assessed as inhibition of LPS-induced TNFalpha production at 5 uM treated 30 mins before LPS challenge measured after 3 hrs by ELISA relative to control; type: functional
RAW264.7 [10] = test: Antiinflammatory activity in mouse RAW264.7 cells assessed as inhibition of LPS-induced TNFalpha production at 5 uM treated 30 mins before LPS challenge measured after 2 hrs by ELISA relative to control; type: functional

| SMILES | inhibition in vivo at 20 mg/kg (Rattus norvegicus [1]) | inhibition in vivo at 20 mg/kg (Rattus norvegicus [2]) | other results |
| --- | --- | --- | --- |
| COc1cc(/C=C/C(=O)c2c(OC)cc(C)c(Cl)c2C)ccc1O | 22.2% | 25% | – |
| Cc1cc(O)c(C(=O)/C=C/c2ccccc2)c(C)c1Cl | 70% | 82% | UI (Rattus norvegicus [3]): 0.4 mm |
| COc1ccc(/C=C/C(=O)c2c(O)cc(C)c(Cl)c2C)cc1 | 50% | 55% | – |
| Cc1cc(O)c(C(=O)/C=C/c2ccc(Cl)cc2)c(C)c1Cl | 41.6% | 36% | – |
| Cc1cc(O)c(C(=O)/C=C/c2ccccc2Cl)c(C)c1Cl | 33% | 70% | – |
| COc1ccc(/C=C/C(=O)c2c(O)cc(C)c(Cl)c2C)cc1OC | 71% | 82% | UI (Rattus norvegicus [3]): 0.6 mm |
| COc1cc(/C=C/C(=O)c2c(O)cc(C)c(Cl)c2C)cc(OC)c1OC | 91.7% | 90.6% | Activity (RAW264.7 [4]): 49.42 pg/mL; Activity (RAW264.7 [5]): 53.77 pg/mL; UI (Rattus norvegicus [3]): 0.4 mm; Activity (RAW264.7 [6]): 88.83 pg/mL; IC50 [7]: 87.5 µM; Activity (RAW264.7 [8]): 34.99 pg/mL; Activity (RAW264.7 [9]): 104.78 pg/mL; Activity (RAW264.7 [10]): 79.77 pg/mL |
| Cc1cc(O)c(C(=O)/C=C/c2cccc(O)c2)c(C)c1Cl | 83% | 71% | UI (Rattus norvegicus [3]): 0.4 mm |
| Cc1cc(O)c(C(=O)/C=C/c2ccccc2[N+](=O)[O-])c(C)c1Cl | 26.3% | 14.3% | – |
| COc1cc(C)c(Cl)c(C)c1C(=O)/C=C/c1ccccc1 | 69.2% | 75% | – |
| COc1ccc(/C=C/C(=O)c2c(OC)cc(C)c(Cl)c2C)cc1 | 16.7% | 12.5% | – |
| COc1cc(C)c(Cl)c(C)c1C(=O)/C=C/c1ccc(Cl)cc1 | 22.2% | 12.5% | – |
| COc1cc(C)c(Cl)c(C)c1C(=O)/C=C/c1ccccc1Cl | 27.8% | 12.5% | – |
| COc1ccc(/C=C/C(=O)c2c(OC)cc(C)c(Cl)c2C)cc1OC | 81% | 62% | UI (Rattus norvegicus [3]): 0.16 mm |
| COc1cc(/C=C/C(=O)c2c(OC)cc(C)c(Cl)c2C)cc(OC)c1OC | 76.9% | 62.5% | UI (Rattus norvegicus [3]): 0.16 mm |
| COc1cc(C)c(Cl)c(C)c1C(=O)/C=C/c1cccc(O)c1 | 80.8% | 75% | UI (Rattus norvegicus [3]): 0.33 mm |
| COc1cc(C)c(Cl)c(C)c1C(=O)/C=C/c1ccccc1O | 33.3% | 50% | – |
| COc1cc(C)c(Cl)c(C)c1C(=O)/C=C/c1cccc([N+](=O)[O-])c1 | 68.2% | 22.2% | – |
| COc1cc(C)c(Cl)c(C)c1C(=O)/C=C/c1ccc(N(C)C)cc1 | 22.2% | 18.8% | – |

| SMILES | inhibition in vivo at 20 mg/kg (Rattus norvegicus [1]) | inhibition in vivo at 20 mg/kg (Rattus norvegicus [2]) | other results |
| --- | --- | --- | --- |
| COc1cc(C)c(Cl)c(C)c1C(=O)/C=C/c1ccccc1[N+](=O)[O-] | 63.6% | 66.7% | – |
| Cc1cc2c(c(C)c1Cl)C(=O)CC(c1ccccc1)O2 (stereo not drawn) | 43.3% | 27.7% | – |
| COc1ccc(C2CC(=O)c3c(cc(C)c(Cl)c3C)O2)cc1 (stereo not drawn) | 51.1% | 70% | – |
| Cc1cc2c(c(C)c1Cl)C(=O)CC(c1ccc(Cl)cc1)O2 (stereo not drawn) | 37.8% | 70% | – |
| Cc1cc2c(c(C)c1Cl)C(=O)CC(c1ccccc1Cl)O2 (stereo not drawn) | 22.2% | 56% | – |
| COc1ccc(C2CC(=O)c3c(cc(C)c(Cl)c3C)O2)cc1OC (stereo not drawn) | 48.5% | 41.7% | – |
| COc1cc(C2CC(=O)c3c(cc(C)c(Cl)c3C)O2)cc(OC)c1OC (stereo not drawn) | 48.5% | 44.4% | – |
| Cc1cc2c(c(C)c1Cl)C(=O)CC(c1cccc(O)c1)O2 (stereo not drawn) | 46.4% | 44.4% | – |
| Cc1cc2c(c(C)c1Cl)C(=O)CC(c1ccccc1O)O2 (stereo not drawn) | 58.8% | 75% | – |
| Cc1cc2c(c(C)c1Cl)C(=O)CC(c1cccc([N+](=O)[O-])c1)O2 (stereo not drawn) | 53.6% | 51.4% | – |
| Cc1cc2c(c(C)c1Cl)C(=O)CC(c1ccc(N(C)C)cc1)O2 (stereo not drawn) | 82% | 81% | UI (Rattus norvegicus [3]): 0 mm |
| COc1cc(C2CC(=O)c3c(cc(C)c(Cl)c3C)O2)ccc1O (stereo not drawn) | 44.4% | 66% | – |
| Cc1cc2oc(-c3ccccc3)cc(=O)c2c(C)c1Cl | 26.3% | 16.2% | – |
| COc1ccc(-c2cc(=O)c3c(C)c(Cl)c(C)cc3o2)cc1 | 58% | 28.6% | – |
| Cc1cc2oc(-c3ccc(Cl)cc3)cc(=O)c2c(C)c1Cl | 26.1% | 22.9% | – |
| Cc1cc2oc(-c3ccccc3Cl)cc(=O)c2c(C)c1Cl | 36.8% | 57.1% | – |
| COc1ccc(-c2cc(=O)c3c(C)c(Cl)c(C)cc3o2)cc1OC | 43.1% | 22.9% | – |
| COc1cc(-c2cc(=O)c3c(C)c(Cl)c(C)cc3o2)cc(OC)c1OC | 68.4% | 73.3% | UI (Rattus norvegicus [3]): 0 mm |
| COc1ccc2c(c1)c(CC(=O)O)c(C)n2C(=O)c1ccc(Cl)cc1 [INDOMETHACIN] | 67% | 86% | UI (Rattus norvegicus [3]): 1.5 mm |
